Reference: the NIST ThermoML archive (doi:10.1016/j.fluid.2017.09.014)
Numbers after ± are expanded uncertainties.

Test: xn = mol fraction of the nth substance listed
Conditions: Vibrating tube method, x2 = 0.9503

O=S=O [sulfur dioxide] + O=C=O
Conditions	mass density [kg/m3]
322.49 K, 26001 kPa, Fluid (supercritical or subcritical phases)	875.4 ± 0.8
322.49 K, 26517 kPa, Fluid (supercritical or subcritical phases)	878.8 ± 0.8
322.49 K, 27508 kPa, Fluid (supercritical or subcritical phases)	886.3 ± 0.8
322.49 K, 28018 kPa, Fluid (supercritical or subcritical phases)	889.5 ± 0.8
322.49 K, 29025 kPa, Fluid (supercritical or subcritical phases)	896.4 ± 0.7
322.49 K, 29507 kPa, Fluid (supercritical or subcritical phases)	899.6 ± 0.7
322.5 K, 17499 kPa, Fluid (supercritical or subcritical phases)	793.5 ± 1.3
322.5 K, 18503 kPa, Fluid (supercritical or subcritical phases)	806.6 ± 1.3
322.5 K, 19491 kPa, Fluid (supercritical or subcritical phases)	818.5 ± 1.1
322.5 K, 24497 kPa, Fluid (supercritical or subcritical phases)	864.4 ± 0.9
322.5 K, 25003 kPa, Fluid (supercritical or subcritical phases)	867.7 ± 0.8
322.51 K, 11504 kPa, Fluid (supercritical or subcritical phases)	649.9 ± 3.5
322.51 K, 12003 kPa, Fluid (supercritical or subcritical phases)	672.3 ± 2.9
322.51 K, 16502 kPa, Fluid (supercritical or subcritical phases)	779.1 ± 1.5
322.51 K, 17005 kPa, Fluid (supercritical or subcritical phases)	786.2 ± 1.3
322.52 K, 14000 kPa, Fluid (supercritical or subcritical phases)	731.9 ± 1.9
322.52 K, 14504 kPa, Fluid (supercritical or subcritical phases)	742.9 ± 1.7
322.52 K, 15012 kPa, Fluid (supercritical or subcritical phases)	753.2 ± 1.7
322.52 K, 15501 kPa, Fluid (supercritical or subcritical phases)	761.8 ± 1.5
322.52 K, 16003 kPa, Fluid (supercritical or subcritical phases)	770.9 ± 1.5
322.53 K, 12505 kPa, Fluid (supercritical or subcritical phases)	691.1 ± 2.5
322.53 K, 13501 kPa, Fluid (supercritical or subcritical phases)	720.4 ± 2.1
322.54 K, 13000 kPa, Fluid (supercritical or subcritical phases)	706.7 ± 2.3
352.93 K, 202 kPa, Gas	3 ± 0.2
352.93 K, 6001 kPa, Gas	114.8 ± 0.4
352.94 K, 1742 kPa, Gas	28.6 ± 0.2
352.94 K, 2504 kPa, Gas	41.8 ± 0.2
352.94 K, 4003 kPa, Gas	70.6 ± 0.2
352.94 K, 4493 kPa, Gas	80.5 ± 0.2
352.94 K, 6516 kPa, Gas	127.7 ± 0.4
352.94 K, 7017 kPa, Gas	140.9 ± 0.4
352.94 K, 7498 kPa, Fluid (supercritical or subcritical phases)	154.1 ± 0.5
352.94 K, 8038 kPa, Fluid (supercritical or subcritical phases)	170.3 ± 0.5
352.94 K, 9008 kPa, Fluid (supercritical or subcritical phases)	201.9 ± 0.7
352.95 K, 306 kPa, Gas	4.6 ± 0.2
352.95 K, 402 kPa, Gas	6 ± 0.2
352.95 K, 511 kPa, Gas	7.6 ± 0.2
352.95 K, 740 kPa, Gas	11.4 ± 0.2
352.95 K, 1507 kPa, Gas	24.3 ± 0.2
352.95 K, 2002 kPa, Gas	33 ± 0.2
352.95 K, 2248 kPa, Gas	37 ± 0.2
352.95 K, 2800 kPa, Gas	47.2 ± 0.2
352.95 K, 3009 kPa, Gas	51 ± 0.2
352.95 K, 4997 kPa, Gas	91.5 ± 0.2
352.95 K, 5490 kPa, Gas	102.6 ± 0.4
352.95 K, 9230 kPa, Fluid (supercritical or subcritical phases)	209.5 ± 0.7
352.95 K, 12000 kPa, Fluid (supercritical or subcritical phases)	321.9 ± 2.7
352.95 K, 12505 kPa, Fluid (supercritical or subcritical phases)	346.8 ± 2.9
352.95 K, 14502 kPa, Fluid (supercritical or subcritical phases)	447.3 ± 2.9
352.95 K, 15497 kPa, Fluid (supercritical or subcritical phases)	493.2 ± 2.7
352.95 K, 16515 kPa, Fluid (supercritical or subcritical phases)	535.1 ± 2.5
352.95 K, 17520 kPa, Fluid (supercritical or subcritical phases)	569.4 ± 2.1
352.95 K, 19511 kPa, Fluid (supercritical or subcritical phases)	624.5 ± 1.7
352.95 K, 21993 kPa, Fluid (supercritical or subcritical phases)	677.2 ± 1.5
352.95 K, 22493 kPa, Fluid (supercritical or subcritical phases)	686.4 ± 1.3
352.95 K, 23011 kPa, Fluid (supercritical or subcritical phases)	694.8 ± 1.3
352.95 K, 24538 kPa, Fluid (supercritical or subcritical phases)	717.4 ± 1.3
352.95 K, 25002 kPa, Fluid (supercritical or subcritical phases)	723.7 ± 1.1
352.95 K, 31494 kPa, Fluid (supercritical or subcritical phases)	793.2 ± 0.9
352.96 K, 982 kPa, Gas	15.1 ± 0.2
352.96 K, 1248 kPa, Gas	19.9 ± 0.2
352.96 K, 3495 kPa, Gas	60.3 ± 0.2
352.96 K, 8507 kPa, Fluid (supercritical or subcritical phases)	185.5 ± 0.5
352.96 K, 10075 kPa, Fluid (supercritical or subcritical phases)	238.1 ± 2.1
352.96 K, 11001 kPa, Fluid (supercritical or subcritical phases)	276.4 ± 2.3
352.96 K, 12998 kPa, Fluid (supercritical or subcritical phases)	371.8 ± 2.9
352.96 K, 13501 kPa, Fluid (supercritical or subcritical phases)	397.6 ± 2.9
352.96 K, 14004 kPa, Fluid (supercritical or subcritical phases)	422.3 ± 2.9
352.96 K, 15003 kPa, Fluid (supercritical or subcritical phases)	470.1 ± 2.9
352.96 K, 16004 kPa, Fluid (supercritical or subcritical phases)	514.7 ± 2.5
352.96 K, 17006 kPa, Fluid (supercritical or subcritical phases)	552.6 ± 2.3
352.96 K, 19011 kPa, Fluid (supercritical or subcritical phases)	611.7 ± 1.9
352.96 K, 20014 kPa, Fluid (supercritical or subcritical phases)	636.9 ± 1.7
352.96 K, 20490 kPa, Fluid (supercritical or subcritical phases)	647.4 ± 1.7
352.96 K, 20999 kPa, Fluid (supercritical or subcritical phases)	657.9 ± 1.5
352.96 K, 21521 kPa, Fluid (supercritical or subcritical phases)	668.5 ± 1.5
352.96 K, 23524 kPa, Fluid (supercritical or subcritical phases)	703.1 ± 1.3
352.96 K, 24023 kPa, Fluid (supercritical or subcritical phases)	710.4 ± 1.3
352.96 K, 25555 kPa, Fluid (supercritical or subcritical phases)	731.2 ± 1.1
352.96 K, 26036 kPa, Fluid (supercritical or subcritical phases)	736.4 ± 1.1
352.96 K, 27501 kPa, Fluid (supercritical or subcritical phases)	752.6 ± 1.1
352.96 K, 28006 kPa, Fluid (supercritical or subcritical phases)	758.3 ± 1.1
352.96 K, 28507 kPa, Fluid (supercritical or subcritical phases)	764.2 ± 1.1
352.96 K, 29492 kPa, Fluid (supercritical or subcritical phases)	773.9 ± 0.9
352.96 K, 29991 kPa, Fluid (supercritical or subcritical phases)	779 ± 0.9
352.96 K, 31058 kPa, Fluid (supercritical or subcritical phases)	789.4 ± 0.9
352.96 K, 31993 kPa, Fluid (supercritical or subcritical phases)	797.6 ± 0.9
352.96 K, 33014 kPa, Fluid (supercritical or subcritical phases)	805.8 ± 0.9
352.96 K, 33519 kPa, Fluid (supercritical or subcritical phases)	809.8 ± 0.9
352.96 K, 36996 kPa, Fluid (supercritical or subcritical phases)	835.2 ± 0.7
352.97 K, 10506 kPa, Fluid (supercritical or subcritical phases)	255.3 ± 2.1
352.97 K, 11505 kPa, Fluid (supercritical or subcritical phases)	298.8 ± 2.5
352.97 K, 18007 kPa, Fluid (supercritical or subcritical phases)	583.3 ± 2.1
352.97 K, 18500 kPa, Fluid (supercritical or subcritical phases)	597.8 ± 1.9
352.97 K, 26597 kPa, Fluid (supercritical or subcritical phases)	742.8 ± 1.1
352.97 K, 29001 kPa, Fluid (supercritical or subcritical phases)	768.7 ± 0.9
352.97 K, 30512 kPa, Fluid (supercritical or subcritical phases)	784.7 ± 0.9
352.97 K, 32552 kPa, Fluid (supercritical or subcritical phases)	802.4 ± 0.9
352.97 K, 34055 kPa, Fluid (supercritical or subcritical phases)	814.5 ± 0.9
352.97 K, 35014 kPa, Fluid (supercritical or subcritical phases)	821.4 ± 0.9
352.97 K, 35510 kPa, Fluid (supercritical or subcritical phases)	824.7 ± 0.7
352.97 K, 36496 kPa, Fluid (supercritical or subcritical phases)	831.8 ± 0.7
352.97 K, 37499 kPa, Fluid (supercritical or subcritical phases)	838.7 ± 0.7
352.97 K, 38520 kPa, Fluid (supercritical or subcritical phases)	845.7 ± 0.7
352.97 K, 39009 kPa, Fluid (supercritical or subcritical phases)	848.1 ± 0.7
352.98 K, 27043 kPa, Fluid (supercritical or subcritical phases)	747.4 ± 1.1
352.98 K, 34563 kPa, Fluid (supercritical or subcritical phases)	818.1 ± 0.9
352.98 K, 36013 kPa, Fluid (supercritical or subcritical phases)	828.1 ± 0.7
352.98 K, 38023 kPa, Fluid (supercritical or subcritical phases)	842.1 ± 0.7
352.98 K, 39300 kPa, Fluid (supercritical or subcritical phases)	850.2 ± 0.7
352.98 K, 39330 kPa, Fluid (supercritical or subcritical phases)	850.5 ± 0.7
